Literature values, collected in US7087617B2, “Substituted pyrimidine derivatives” (Pfizer Inc., priority 2003, dated 2006).

Settings: for effect on the "anxiogenic" effects / actions of CRF in the conflict test: rats, CRF-induced effects

Row | Compound | effect on the "anxiogenic" effects / actions of CRF in the conflict test | behavioral activity alone in the operant conflict test (compound alone, without CRF)
1 | CNC(=O)c1cc2c(cn1)[nH]c1ccccc12 [FG 7142] | enhanced the actions of CRF | –
2 | CCOC(=O)c1ncn2c1CN(C)C(=O)c1cc(F)ccc1-2 [Ro 15-1788] | reversed the effects of CRF in a dose-dependent manner | without behavioral activity alone
